Test results published in US8143260B2, “Tricyclic amine compound” (Research Foundation Itsuu Laboratory, priority 2007, dated 2012).
Where “and” joins values, the source holds several entries; their conditions need not be identical. Identical values can stand only once.

Tested on: human acute promyelocytic leukemia cell strain HL-60
Assay: Differentiation induction of HL-60 cells (NBT-reducing ability); enhancement of the retinoid action of Am80
Type: cell-based
Conditions: for Differentiation induction ratio (%), Am80 1 nM + Test compound: four days; for Differentiation induction ratio (%), Test compound alone: test compound alone 100 nM
Method: Cells of human acute promyelocytic leukemia cell strain HL-60 were cultured in a CO2 incubator (5% CO2, 37° C.) using the RPMI medium containing 5% FBS. Differentiation inducing action on the HL-60 cells induced by 4-[(5,6,7,8-tetrahydro-5,5,8,8-tetramethyl-2-naphthalenyl)carbamoyl]benzoic acid (Am80) was evaluated on the basis of ability to reduce nitroblue tetrazolium (NBT) determined by observing differentiation from promyelocytic cells into granulocytic cells as an index. The cells that entered into the logarithmic phase and reached a substantially confluent state were centrifuged at 1000 rpm for 5 minutes, and the culture supernatant was removed. The cell pellet was suspended in fresh RPMI medium containing 5% FBS at a density of 8.0×10^4 cells/ml, then the suspension was added with a test compound dissolved in DMSO at an intended concentration, and the cells were cultured for four days and then used for the experiment. The samples were prepared so as to have the same DMSO concentration.
Cell count of the cells after the culture for a predetermined period was determined by a cell counting method using a blood cell counting chamber. The NBT-reducing ability was obtained as follows. NBT was dissolved in phosphate buffered saline (PBS(−)) at a concentration of 0.2%, and the solution was added with an equivalent volume of the RPMI medium containing 5% FBS. The mixture was added with phorbol 12-myristate 13-acetate (tPA) at a concentration of 0.2 μM (about 200 ng) to prepare a reagent solution. The collected cells were centrifuged at 1000 rpm for 5 minutes, the supernatant was removed, and the remained cell pellet was added with the reagent solution. The mixture was incubated on a water bath at 37° C. for 20 minutes, and then NBT-reduced stained positive cells were counted by using the counting chamber to calculate a differentiation induction ratio. The same test was performed with allowing the compounds of the present invention prepared in the aforementioned examples (all were carboxylic acid compounds) to coexist with Am80 to confirm action of the compounds of the present invention for enhancing the retinoid action of Am80. As a compound having a retinoid action enhancing action (positive control), 4-[2,3-(2,5-dimethyl-2,5-hexano)dibenzo[b,f][1,4]thiazepin-11-yl]benzoic acid (HX630, Japanese Patent Unexamined Publication No. 10-59951) was used.

[1] = Am80 1 nM + test compound 1 × 10^−7M
[2] = Am80 1 nM + test compound 1 × 10^−8M
[3] = Am80 1 nM + test compound 1 × 10^−9M
[4] = cultured four days, NBT-positive cells

Structure (SMILES) | Differentiation induction ratio (%), Am80 alone (Am80 alone 1 nM, cultured four days, NBT-positive cells) | Differentiation induction ratio (%), Am80 1 nM + Test compound [1] | Differentiation induction ratio (%), Am80 1 nM + Test compound [2] | Differentiation induction ratio (%), Am80 1 nM + Test compound [3] | Differentiation induction ratio (%), Test compound alone [4]
CC1(C)CCC(C)(C)c2cc(NC(=O)c3ccc(C(=O)O)cc3)ccc21 [Am80, 4-[(5,6,7,8-tetrahydro-5,5,8,8-tetramethyl-2-naphthalenyl)carbamoyl]benzoic acid, reference compound] | 16.9% and 15.9% |  |  |  | 
CCN(c1ccc(C(=O)O)cc1)c1cc2c3c(c1)CCCC3CCC2 [Example 3, 4-[N-Ethyl-(5,6,6a,7,8,9-hexahydro-4H-2-phenalenyl)amino]benzoic acid] |  | 25.8% | 26.4% | 20.5% | 1.5%
O=C(O)c1ccc(N(CC2CC2)c2cc3c4c(c2)CCCC4CCC3)cc1 [Example 4, 4-[N-Cyclopropylmethyl-(5,6,6a,7,8,9-hexahydro-4H-2-phenalenyl)amino]benzoic acid] |  | 82.9% | 37.5% | 23.9% | 1.9%
CCN(c1ccc(C(=O)O)cc1)c1cc2c3c(c1)CCCCC3CCCC2 [Example 19, 4-[N-Ethyl-(5,6,7,7a,8,9,10,11-octahydro-4H-2-benzo[ef]heptalenyl)amino]benzoic acid] |  | 85.4% | 44.6% | 31.8% | 2.2%
O=C(O)c1ccc(N(CC2CC2)c2cc3c4c(c2)CCCCC4CCCC3)cc1 [Example 20, 4-[N-Cyclopropylmethyl-(5,6,7,7a,8,9,10,11-octahydro-4H-2-benzo[ef]heptalenyl)amino]benzoic acid] |  | 89.8% | 54.8% | 35.2% | 1.4%
CC1(C)CCC(C)(C)c2cc3c(cc21)Sc1ccccc1N=C3c1ccc(C(=O)O)cc1 [HX630, 4-[2,3-(2,5-dimethyl-2,5-hexano)dibenzo[b,f][1,4]thiazepin-11-yl]benzoic acid, reference compound] |  | 72.3% | 27.8% | 20.4% | 1.6%
